The values below come from paper PMC10104807, “Modulation of tau tubulin kinases (TTBK1 and TTBK2) impacts ciliogenesis” (Scientific Reports, 2023).

pIC50: −log10 of the molar value.

Series [1] concerns the target T1, JAK2(JH1domain-catalytic) (Homo sapiens, UniProt O60674).
T1 construct: JAK2(JH1domain-catalytic); purchased Eurofins (radiometric) / Eurofins DiscoverX scanMAX / Reaction Biology / SignalChem
Briefly: DiscoverX scanMAX binding assay. The method in brief: (§1)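 Values are percent of control (PoC) from a kinase binding assay, obtained with test compound at 1 µM against a panel of 403 wild-type human kinases.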

Series [2] addresses T2, MAP3K2 (Homo sapiens, UniProt Q9Y2U5).
T2 construct: purchased Eurofins (radiometric) / Eurofins DiscoverX scanMAX / Reaction Biology / SignalChem
Description: DiscoverX scanMAX binding assay. The method in brief:
as §1

Series [3] has as its target T3, MAP3K3 (Homo sapiens, UniProt Q99759).
T3 construct: purchased Eurofins (radiometric) / Eurofins DiscoverX scanMAX / Reaction Biology / SignalChem
Briefly: DiscoverX scanMAX binding assay. The method, boiled down:
as §1

The target in series [4] is T4, MAP4K5 (Homo sapiens, UniProt Q9Y4K4).
T4 construct: purchased Eurofins
Description: DiscoverX scanMAX binding assay. Conditions: 1 μM. The method in brief: as §1

Series [5] has as its target T5, MEK4 (Homo sapiens, UniProt P45985).
T5 construct: purchased Eurofins (radiometric) / Eurofins DiscoverX scanMAX / Reaction Biology / SignalChem
Description: DiscoverX scanMAX binding assay. Conditions: 1 μM. The method in brief: as §1

The target of series [6] is T6, MYLK4 (Homo sapiens, UniProt Q86YV6).
T6 construct: purchased Eurofins (radiometric) / Eurofins DiscoverX scanMAX / Reaction Biology / SignalChem
Description: DiscoverX scanMAX binding assay. Conditions: 1 μM. The method in brief: as §1

For series [7], the target named is T7, PAK4 (Homo sapiens, UniProt O96013).
T7 construct: purchased Eurofins (radiometric) / Eurofins DiscoverX scanMAX / Reaction Biology / SignalChem
T7 sequence (O96013 whole entry): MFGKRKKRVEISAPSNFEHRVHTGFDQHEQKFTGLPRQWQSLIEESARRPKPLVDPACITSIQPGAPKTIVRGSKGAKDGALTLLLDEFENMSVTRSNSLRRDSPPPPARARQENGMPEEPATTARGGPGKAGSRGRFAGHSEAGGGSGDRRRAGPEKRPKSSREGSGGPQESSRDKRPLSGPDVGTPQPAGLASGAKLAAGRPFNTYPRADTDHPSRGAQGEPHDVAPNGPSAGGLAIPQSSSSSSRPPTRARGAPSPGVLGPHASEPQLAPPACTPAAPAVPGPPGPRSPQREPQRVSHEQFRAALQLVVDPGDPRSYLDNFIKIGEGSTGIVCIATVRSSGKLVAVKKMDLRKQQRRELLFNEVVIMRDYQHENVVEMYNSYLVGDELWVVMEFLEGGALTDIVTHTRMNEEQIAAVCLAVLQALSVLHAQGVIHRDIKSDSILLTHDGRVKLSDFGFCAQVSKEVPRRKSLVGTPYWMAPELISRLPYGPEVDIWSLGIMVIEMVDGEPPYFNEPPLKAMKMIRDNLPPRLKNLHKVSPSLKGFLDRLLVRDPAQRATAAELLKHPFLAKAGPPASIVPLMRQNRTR
Description: DiscoverX scanMAX binding assay. The method in brief: as §1

Series [8] concerns the target T8, PAK6 (Homo sapiens, UniProt Q9NQU5).
T8 construct: purchased Eurofins (radiometric) / Eurofins DiscoverX scanMAX / Reaction Biology / SignalChem
Description: DiscoverX scanMAX binding assay. The method in brief:
as §1

The target of series [9] is T9, PIKfyve (Homo sapiens, UniProt Q9Y2I7).
T9 construct: purchased Eurofins (radiometric) / Eurofins DiscoverX scanMAX / Reaction Biology / SignalChem
T9 sequence (Q9Y2I7 whole entry): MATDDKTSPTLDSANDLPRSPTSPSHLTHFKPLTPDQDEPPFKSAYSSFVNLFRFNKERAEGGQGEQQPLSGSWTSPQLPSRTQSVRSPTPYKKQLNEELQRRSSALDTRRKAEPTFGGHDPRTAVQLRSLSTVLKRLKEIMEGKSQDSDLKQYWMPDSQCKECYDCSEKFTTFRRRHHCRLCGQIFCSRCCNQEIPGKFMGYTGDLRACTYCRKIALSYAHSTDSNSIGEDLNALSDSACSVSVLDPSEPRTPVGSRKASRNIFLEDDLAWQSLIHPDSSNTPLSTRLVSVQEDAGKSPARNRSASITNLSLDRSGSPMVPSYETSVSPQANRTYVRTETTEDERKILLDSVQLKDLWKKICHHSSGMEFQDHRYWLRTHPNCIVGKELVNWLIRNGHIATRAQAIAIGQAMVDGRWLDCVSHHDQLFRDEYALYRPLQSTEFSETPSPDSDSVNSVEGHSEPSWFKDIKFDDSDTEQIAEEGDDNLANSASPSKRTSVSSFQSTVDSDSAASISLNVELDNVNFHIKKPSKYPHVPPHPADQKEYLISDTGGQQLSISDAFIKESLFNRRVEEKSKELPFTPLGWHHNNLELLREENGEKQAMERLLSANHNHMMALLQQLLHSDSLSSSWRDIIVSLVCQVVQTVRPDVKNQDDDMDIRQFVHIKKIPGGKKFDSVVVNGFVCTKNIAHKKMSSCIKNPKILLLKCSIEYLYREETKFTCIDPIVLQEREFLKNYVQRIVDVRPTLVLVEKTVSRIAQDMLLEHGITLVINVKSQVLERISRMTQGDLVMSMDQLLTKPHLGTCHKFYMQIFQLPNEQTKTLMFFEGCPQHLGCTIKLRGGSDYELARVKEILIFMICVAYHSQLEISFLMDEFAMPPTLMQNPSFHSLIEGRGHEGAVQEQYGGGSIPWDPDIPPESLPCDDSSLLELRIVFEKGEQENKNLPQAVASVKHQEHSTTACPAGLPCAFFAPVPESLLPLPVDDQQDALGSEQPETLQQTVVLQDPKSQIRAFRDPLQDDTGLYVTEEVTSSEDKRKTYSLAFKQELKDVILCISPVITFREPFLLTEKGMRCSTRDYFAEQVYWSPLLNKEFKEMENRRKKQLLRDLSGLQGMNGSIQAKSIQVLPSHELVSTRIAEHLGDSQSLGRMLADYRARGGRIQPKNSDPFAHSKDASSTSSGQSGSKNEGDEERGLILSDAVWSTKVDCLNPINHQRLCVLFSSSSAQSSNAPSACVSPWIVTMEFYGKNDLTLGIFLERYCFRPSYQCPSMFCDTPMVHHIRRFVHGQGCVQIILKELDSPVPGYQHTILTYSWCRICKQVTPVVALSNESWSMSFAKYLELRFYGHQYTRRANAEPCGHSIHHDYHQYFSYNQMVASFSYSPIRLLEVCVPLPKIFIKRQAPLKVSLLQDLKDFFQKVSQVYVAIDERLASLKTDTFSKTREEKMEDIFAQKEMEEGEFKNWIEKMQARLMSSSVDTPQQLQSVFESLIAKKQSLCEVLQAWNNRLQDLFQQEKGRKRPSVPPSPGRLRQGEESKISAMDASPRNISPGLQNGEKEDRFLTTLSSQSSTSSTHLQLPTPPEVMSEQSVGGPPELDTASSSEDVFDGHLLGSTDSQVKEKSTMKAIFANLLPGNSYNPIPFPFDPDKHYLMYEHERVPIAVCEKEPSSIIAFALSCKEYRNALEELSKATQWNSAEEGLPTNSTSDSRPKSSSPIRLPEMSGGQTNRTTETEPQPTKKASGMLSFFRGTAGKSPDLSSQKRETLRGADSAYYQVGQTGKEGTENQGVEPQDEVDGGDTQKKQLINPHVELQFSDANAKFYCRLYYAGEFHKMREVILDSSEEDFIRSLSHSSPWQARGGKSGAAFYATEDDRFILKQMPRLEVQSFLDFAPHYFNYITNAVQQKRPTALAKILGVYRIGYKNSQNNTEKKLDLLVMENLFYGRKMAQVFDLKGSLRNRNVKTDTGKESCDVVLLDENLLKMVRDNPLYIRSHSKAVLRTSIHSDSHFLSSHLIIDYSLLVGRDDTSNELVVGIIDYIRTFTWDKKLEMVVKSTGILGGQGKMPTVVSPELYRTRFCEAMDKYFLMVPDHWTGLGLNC
Briefly: DiscoverX scanMAX binding assay. To be noted: 1 μM. The method in brief:
as §1

The target of series [10] is T10, PRKX (Homo sapiens, UniProt P51817).
T10 construct: purchased Eurofins (radiometric) / Eurofins DiscoverX scanMAX / Reaction Biology / SignalChem
Description: DiscoverX scanMAX binding assay. The method, boiled down:
as §1

For series [11], the target named is T11, RIPK5 (Homo sapiens, UniProt Q6XUX3).
T11 construct: purchased Eurofins (radiometric) / Eurofins DiscoverX scanMAX / Reaction Biology / SignalChem
Briefly: DiscoverX scanMAX binding assay. To be noted: 1 μM. The method, boiled down: as §1

Series [12] concerns TTBK1. Details: method as in earlier work. Conditions: screened at 1 μM; cited from earlier work.
Series [13] relates to TTBK2. Details: method as in earlier work. Conditions: screened at 1 μM; cited from earlier work.
In series [14] the test system is TTBK1. Details: method as in PMID 33944571. Conditions: read-out: TTBK1 IC50 (Biogen biochemical assay); cited from earlier work.
Series [15] has as its target T12, TTBK1 kinase domain (Homo sapiens, UniProt Q5TCY1).
T12 construct: Either the TTBK1 or TTBK2 kinase domain at 2 µM
Description: Thermal shift assay. It counts as binding. Conditions: kinase domain 2 µM, inhibitor 10 µM. As for the experimental part: A Real-Time PCR Mx3005p machine (Stratagene) was used to measure the fluorescence spectrum. The Tm shift assays and data evaluation for melting temperatures were performed according to the previously described protocol.

In series [16] the target is T13, CDK11 (Homo sapiens, UniProt Q9BWU1).
T13 construct: purchased Eurofins (radiometric) / Eurofins DiscoverX scanMAX / Reaction Biology / SignalChem
Description: DiscoverX scanMAX binding assay. Conditions: 1 μM. The method in brief:
as §1

For series [17], the target named is T14, CHEK2 (Homo sapiens, UniProt O96017).
T14 construct: purchased Eurofins (radiometric) / Eurofins DiscoverX scanMAX / Reaction Biology / SignalChem
Description: DiscoverX scanMAX binding assay. Conditions: 1 μM. The method, boiled down: as §1

Series [18] concerns the target T15, CSNK1D (Homo sapiens, UniProt P48730).
T15 construct: purchased Eurofins (radiometric) / Eurofins DiscoverX scanMAX / Reaction Biology / SignalChem
Briefly: DiscoverX scanMAX binding assay. Conditions: 1 μM. The method, boiled down:
as §1

Series [19] concerns the target T16, CSNK1E (Homo sapiens, UniProt P49674).
T16 construct: purchased Eurofins (radiometric) / Eurofins DiscoverX scanMAX / Reaction Biology / SignalChem
Description: DiscoverX scanMAX binding assay. To be noted: 1 μM. The method, boiled down: as §1

Series [20] addresses T17, HASPIN (Homo sapiens, UniProt Q8TF76).
T17 construct: purchased Eurofins (radiometric) / Eurofins DiscoverX scanMAX / Reaction Biology / SignalChem
Description: DiscoverX scanMAX binding assay. To be noted: 1 μM. The method in brief:
as §1

Series [21] has as its target T18, PRKCE (Homo sapiens, UniProt Q02156).
T18 construct: purchased Eurofins (radiometric) / Eurofins DiscoverX scanMAX / Reaction Biology / SignalChem
Briefly: DiscoverX scanMAX binding assay. To be noted: 1 μM. The method in brief: as §1

The target of series [22] is T19, RPS6KA4(Kin.Dom.2-C-terminal) (Homo sapiens, UniProt O75676).
T19 construct: RPS6KA4(Kin.Dom.2-C-terminal); purchased Eurofins (radiometric) / Eurofins DiscoverX scanMAX / Reaction Biology / SignalChem
T19 sequence (O75676 411-674 limits assumed): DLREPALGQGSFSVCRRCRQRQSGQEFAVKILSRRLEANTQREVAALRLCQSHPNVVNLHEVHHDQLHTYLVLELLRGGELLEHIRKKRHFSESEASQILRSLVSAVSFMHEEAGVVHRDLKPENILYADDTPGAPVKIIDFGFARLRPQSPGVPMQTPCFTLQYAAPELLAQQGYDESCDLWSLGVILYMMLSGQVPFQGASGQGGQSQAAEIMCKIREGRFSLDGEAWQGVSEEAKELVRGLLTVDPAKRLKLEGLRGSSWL
Briefly: DiscoverX scanMAX binding assay. To be noted: 1 μM. The method, boiled down:
as §1

Series [23] can be described thus: Kinetic solubility (Analiza). Conditions: PBS pH 7.4, from 10 mM DMSO stocks. In kind it is physicochemical. The text has this:
Calculated solubility values in Table 2 have been corrected for background nitrogen present in the DMSO and media.

Series [24] concerns the target T20, AURKB (Homo sapiens, UniProt Q96GD4).
T20 construct: purchased Eurofins (radiometric) / Eurofins DiscoverX scanMAX / Reaction Biology / SignalChem
Description: DiscoverX scanMAX binding assay. To be noted: 1 μM. The method, boiled down:
as §1

Series [25] addresses T21, BRAF(V600E) (Homo sapiens, UniProt P15056, V600E).
T21 construct: purchased Eurofins (radiometric) / Eurofins DiscoverX scanMAX / Reaction Biology / SignalChem
Description: DiscoverX scanMAX binding assay. Conditions: 1 μM.

Series [26] concerns the target T22, CDC2L1 (Homo sapiens, UniProt P21127).
T22 construct: purchased Eurofins (radiometric) / Eurofins DiscoverX scanMAX / Reaction Biology / SignalChem
Description: DiscoverX scanMAX binding assay. Conditions: 1 μM. The method, boiled down:
as §1

The target in series [27] is T23, HIPK1 (Homo sapiens, UniProt Q86Z02).
T23 construct: purchased Eurofins (radiometric) / Eurofins DiscoverX scanMAX / Reaction Biology / SignalChem
Briefly: DiscoverX scanMAX binding assay. Conditions: 1 μM. The method, boiled down: as §1

In series [28] the target is T24, PRKD2 (Homo sapiens, UniProt Q9BZL6).
T24 construct: purchased Eurofins (radiometric) / Eurofins DiscoverX scanMAX / Reaction Biology / SignalChem
Description: DiscoverX scanMAX binding assay. To be noted: 1 μM. The method, boiled down: as §1

In series [29] the target is T25, RPS6KA5(Kin.Dom.2-C-terminal) (Homo sapiens, UniProt O75582).
T25 construct: RPS6KA5(Kin.Dom.2-C-terminal); purchased Eurofins (radiometric) / Eurofins DiscoverX scanMAX / Reaction Biology / SignalChem
Briefly: DiscoverX scanMAX binding assay. To be noted: 1 μM. The method in brief:
as §1

Series [30] deals with T26, SNARK (Homo sapiens, UniProt Q9H093).
T26 construct: purchased Eurofins (radiometric) / Eurofins DiscoverX scanMAX / Reaction Biology / SignalChem
Description: DiscoverX scanMAX binding assay. To be noted: 1 μM. The method in brief: as §1

The target of series [31] is T27, TYK2(JH1domain-catalytic) (Homo sapiens, UniProt P29597).
T27 construct: TYK2(JH1domain-catalytic); purchased Eurofins (radiometric) / Eurofins DiscoverX scanMAX / Reaction Biology / SignalChem
Description: DiscoverX scanMAX binding assay. Conditions: 1 μM. The method, boiled down: as §1

By pIC50 is commonly meant −log10 of the IC50, conventionally taken in molar units.

T5 sequence (P45985 whole entry): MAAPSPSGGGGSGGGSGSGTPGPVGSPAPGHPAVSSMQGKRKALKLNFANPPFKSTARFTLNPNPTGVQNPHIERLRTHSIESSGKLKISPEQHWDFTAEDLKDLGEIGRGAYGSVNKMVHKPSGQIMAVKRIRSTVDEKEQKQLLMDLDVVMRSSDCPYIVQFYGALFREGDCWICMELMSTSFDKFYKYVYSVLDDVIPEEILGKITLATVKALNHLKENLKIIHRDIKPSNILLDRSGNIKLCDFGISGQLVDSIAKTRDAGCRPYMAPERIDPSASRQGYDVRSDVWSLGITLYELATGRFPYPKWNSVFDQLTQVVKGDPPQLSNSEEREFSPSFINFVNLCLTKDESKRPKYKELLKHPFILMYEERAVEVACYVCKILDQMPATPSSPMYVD
T2 sequence (Q9Y2U5 whole entry): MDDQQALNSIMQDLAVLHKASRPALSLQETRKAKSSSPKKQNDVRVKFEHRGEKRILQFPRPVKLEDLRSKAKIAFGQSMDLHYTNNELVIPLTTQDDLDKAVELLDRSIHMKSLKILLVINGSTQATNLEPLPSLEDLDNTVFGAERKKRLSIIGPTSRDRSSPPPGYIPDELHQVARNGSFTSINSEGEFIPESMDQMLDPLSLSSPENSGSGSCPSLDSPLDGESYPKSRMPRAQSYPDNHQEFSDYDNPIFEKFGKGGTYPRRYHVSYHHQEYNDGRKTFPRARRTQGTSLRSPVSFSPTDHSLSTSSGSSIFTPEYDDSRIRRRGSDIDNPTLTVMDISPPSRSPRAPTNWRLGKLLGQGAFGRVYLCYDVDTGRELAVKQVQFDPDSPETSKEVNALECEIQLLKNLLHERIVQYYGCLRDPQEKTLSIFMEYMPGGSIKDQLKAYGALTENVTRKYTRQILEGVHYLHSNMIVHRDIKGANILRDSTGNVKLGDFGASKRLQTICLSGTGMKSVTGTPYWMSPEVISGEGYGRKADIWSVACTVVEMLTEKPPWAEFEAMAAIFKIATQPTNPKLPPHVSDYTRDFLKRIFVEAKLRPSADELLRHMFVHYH
T8 sequence (Q9NQU5 whole entry): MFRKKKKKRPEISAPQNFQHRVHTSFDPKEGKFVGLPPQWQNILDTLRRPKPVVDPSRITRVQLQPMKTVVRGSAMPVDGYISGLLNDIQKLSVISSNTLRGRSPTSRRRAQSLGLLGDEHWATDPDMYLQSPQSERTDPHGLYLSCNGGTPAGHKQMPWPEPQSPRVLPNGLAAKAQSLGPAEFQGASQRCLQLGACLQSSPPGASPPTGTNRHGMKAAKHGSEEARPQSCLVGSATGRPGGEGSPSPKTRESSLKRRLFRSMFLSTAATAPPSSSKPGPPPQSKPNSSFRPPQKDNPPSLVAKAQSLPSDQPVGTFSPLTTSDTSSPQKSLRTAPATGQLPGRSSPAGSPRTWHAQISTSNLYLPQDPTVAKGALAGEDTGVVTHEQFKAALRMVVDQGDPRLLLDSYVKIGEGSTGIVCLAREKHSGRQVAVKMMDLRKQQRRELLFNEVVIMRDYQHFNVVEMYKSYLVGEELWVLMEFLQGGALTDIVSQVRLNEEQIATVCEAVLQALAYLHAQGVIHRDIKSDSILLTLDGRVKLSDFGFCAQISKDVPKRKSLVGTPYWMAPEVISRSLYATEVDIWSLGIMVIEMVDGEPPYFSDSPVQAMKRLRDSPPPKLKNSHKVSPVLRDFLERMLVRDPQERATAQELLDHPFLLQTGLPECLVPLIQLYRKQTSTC
T12 sequence (Q5TCY1 13-320): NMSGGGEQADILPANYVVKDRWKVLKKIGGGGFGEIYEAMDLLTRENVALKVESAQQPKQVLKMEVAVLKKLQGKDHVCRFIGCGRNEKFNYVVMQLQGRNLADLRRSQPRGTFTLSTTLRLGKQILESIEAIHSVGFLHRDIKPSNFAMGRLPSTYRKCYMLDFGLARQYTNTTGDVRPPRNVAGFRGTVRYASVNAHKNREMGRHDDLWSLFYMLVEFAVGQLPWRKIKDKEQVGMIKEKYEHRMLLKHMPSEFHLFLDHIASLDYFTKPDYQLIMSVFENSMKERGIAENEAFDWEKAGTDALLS

`CC(C)(O)C#Cc1ccc2[nH]c3c(c2c1)-c1nc(N)ncc1CCC3` [AMG28, reference compound]: the percent of control (binding) at 1 µM in [1] (read-out: JAK2(JH1domain-catalytic) % control at 1000nM) amounted to 6.9%; in [3] (read-out: MAP3K3 % control at 1000nM) it was 7.2%; in [8] (read-out: PAK6 % control at 1000nM) it was 2.9%; in series [10] (read-out: PRKX % control at 1000nM) it was 4.3%. Also, the results for the binding, percent of control at 1 µM in [2] (read-out: MAP3K2 % control at 1000nM) and in series [7] (read-out: PAK4 % control at 1000nM) were 3.7% and 5.7%, respectively. The “MAP4K5 % control at 1000nM / DiscoverX PoC value” in series [4] is 6.6 % control. In addition, the “MEK4 (MKK4) % control at 1000nM / DiscoverX PoC value” in [5] is recorded as 8.6 % control. Moreover, the “MYLK4 % control at 1000nM / DiscoverX PoC value” in series [6] is 2.8 % control. Also, the “PIKFYVE % control at 1000nM / DiscoverX PoC value” in series [9] is 0.4 % control. In addition, the “RIPK5 % control at 1000nM / DiscoverX PoC value” in series [11] came out at 2.2 % control. For the same compound, in series [12], the TTBK1 activity remaining is 8%. Besides, the TTBK2 activity remaining in series [13] is 12%. Also, the pIC50 in [14] was […].
In the case of `CC(C)(O)C#Cc1ccc2[nH]c3c(c2c1)-c1nc(N)ncc1CC3` [Compound 1], the “ΔTm TTBK1” value in series [15] was 6.1 °C. Besides, the “CDK11 % control at 1000nM” value in series [16] was 4.7 % control. Moreover, in series [17], the “CHEK2 (CHK2) % control at 1000nM / DiscoverX PoC value” turned out to be 7.9 % control. Moreover, in series [18], the “CSNK1D % control at 1000nM / DiscoverX PoC value” came out at 3 % control. Also, the “CSNK1E % control at 1000nM / DiscoverX PoC value” in series [19] was determined as 6.2 % control. For the same compound, in [20], the “HASPIN % control at 1000nM” value amounted to 0.3 % control. For the same compound, in series [5], the “MEK4 (MKK4) % control at 1000nM / DiscoverX PoC value” turned out to be 7.3 % control. Moreover, in series [6], the “MYLK4 % control at 1000nM / DiscoverX PoC value” came to 9.4 % control. In addition, the “PIKFYVE % control at 1000nM / DiscoverX PoC value” in series [9] stood at 0 % control. Also, the “PRKCE % control at 1000nM” value in [21] stood at 3.1 % control. Also, the “RPS6KA4(Kin.Dom.2-C-terminal) % control at 1000nM” value in series [22] was determined as 7.3 % control.
As for `CC(C)(O)C#Cc1ccc2[nH]cc(-c3ccnc(N)n3)c2c1` [Compound 3], in series [15], the “ΔTm TTBK1” value came out at 6.9 °C. For the same compound, the Kinetic solubility in series [23] was 133 µM. Also, in series [24], the “AURKB % control at 1000nM” value came to 3.7 % control. The “BRAF(V600E) % control at 1000nM” value in series [25] worked out at 6.5 % control. In addition, the “CDC2L1 % control at 1000nM” value in series [26] is listed as 4.3 % control. Besides, the “CSNK1D % control at 1000nM / DiscoverX PoC value” in [18] is listed as 8.4 % control. For the same compound, in [27], the “HIPK1 % control at 1000nM” value is listed as 9.4 % control. The “JAK2(JH1domain-catalytic) % control at 1000nM” value in [1] (1 μM) was 0.5 % control. In addition, in series [2] (1 μM), the “MAP3K2 % control at 1000nM” value is listed as 0.8 % control. Besides, the “MAP3K3 % control at 1000nM” value in series [3] (1 μM) is 7.6 % control. Moreover, in series [7] (1 μM), the “PAK4 % control at 1000nM” value came out at 8.3 % control. Besides, the “PAK6 % control at 1000nM” value in series [8] (1 μM) was found to be 6.7 % control. Also, in series [21], the “PRKCE % control at 1000nM” value amounted to 6.8 % control. For the same compound, the “PRKD2 % control at 1000nM” value in series [28] worked out at 8.3 % control. In addition, in series [10] (1 μM), the “PRKX % control at 1000nM” value stood at 3.5 % control. In [22], the “RPS6KA4(Kin.Dom.2-C-terminal) % control at 1000nM” value came out at 0.1 % control. For the same compound, the “RPS6KA5(Kin.Dom.2-C-terminal) % control at 1000nM” value in series [29] was determined as 8.9 % control. The “SNARK % control at 1000nM” value in series [30] turned out to be 1.7 % control. Further, the “TYK2(JH1domain-catalytic) % control at 1000nM” value in series [31] worked out at 6.3 % control.
